The assay deals with α7 integrin promoter. Put plainly: muscle cell-based assay: α7βgal+/− myoblasts/myotubes, LacZ reporter, β-galactosidase cleavage of FDG. Particulars: Myoblasts. Details: species or system mouse; Results in α7+/− β-galactosidase assay: scale not given here. Put shortly:
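Fluorescein generated from FDG by β-galactosidase reports α7 integrin promoter activity in differentiated myoblasts from α7+/− LacZ knock-in pups. Screening hits then went to dose-response, western blotting and a myostatin counterscreen.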

As to `CCCC(=O)OCC(=O)c1[nH]c(C)c(C(C)=O)c1C` [drawing 704], the “Results in α7+/− β-galactosidase assay” value reads like this: (0.5 uM) 0.1272; (1 uM) 0.03672; (5 uM) 0.01568; (10 uM) 0.2296; (20 uM) −0.2776; (40 uM) −0.5017.
Consider `CCO/C(C)=C1\C(=O)Nc2ccccc21` [drawing 705], for which the “Results in α7+/− β-galactosidase assay” value was −0.00711 (0.5 uM); 0.04915 (1 uM); 0.06742 (5 uM); 0.09535 (10 uM); −0.0389 (20 uM); −0.1063 (40 uM).
On to `COc1ccc(C(=O)Nc2ccc(Cl)cn2)cc1Cl` [drawing 706], for which the “Result in α7+/− β-galactosidase assay” value is, setting by setting: (0.5 uM) 0.1451; (1 uM) 0.1676; (5 uM) −0.1344; (10 uM) −0.2645; (20 uM) −0.7598; (40 uM) −0.8234.
As to `CCOc1ccccc1NC(=O)c1cccc2c1C(=O)N(C1CCCCC1)C2` [drawing 707], the “Result in α7+/− β-galactosidase assay” value was 0.2793 (0.5 uM); 0.1772 (1 uM); −0.01616 (5 uM); 0.02001 (10 uM); 0.1258 (20 uM); 0.02179 (40 uM).
As to `CCOC(=O)C1CCCN(C(=O)CNS(=O)(=O)c2ccc(Br)s2)C1` (stereo not drawn) [drawing 708], the “Result in α7+/− β-galactosidase assay” value (0.5 uM) is −0.01823; the “Result in α7+/− β-galactosidase assay” value (1 uM) amounted to 0.07424; the “Result in α7+/− β-galactosidase assay” value (5 uM) is reported as −0.1417; the “Result in α7+/− β-galactosidase assay” value (10 uM) is −0.1278; the “Result in α7+/− β-galactosidase assay” value (20 uM) was −0.1459; the “Result in α7+/− β-galactosidase assay” value (40 uM) is recorded as −0.2189.
Turning to `Cc1nnc(SCC(=O)c2ccc(Br)cc2)s1` [drawing 709], the “Result in α7+/− β-galactosidase assay” value (0.5 uM) was 0.3789; the “Result in α7+/− β-galactosidase assay” value (1 uM) is 0.2434; the “Result in α7+/− β-galactosidase assay” value (5 uM) amounted to 0.08324; the “Result in α7+/− β-galactosidase assay” value (10 uM) came to 0.1001; the “Result in α7+/− β-galactosidase assay” value (20 uM) came out at 0.111; the “Result in α7+/− β-galactosidase assay” value (40 uM) is −0.07647.
Turning to `Cn1ccc(C(=O)Nc2cccnc2Cl)n1` [drawing 710], the “Result in α7+/− β-galactosidase assay” value (0.5 uM) is recorded as 0.1419; the “Result in α7+/− β-galactosidase assay” value (1 uM) came to 0.09145; the “Result in α7+/− β-galactosidase assay” value (5 uM) is on record as 0.0569; the “Result in α7+/− β-galactosidase assay” value (10 uM) is recorded as 0.1922; the “Result in α7+/− β-galactosidase assay” value (20 uM) is given as −0.0349; the “Result in α7+/− β-galactosidase assay” value (40 uM) is on record as −0.1785.
For `CCOC(=O)c1sc(=N)n(-c2ccc(OC)cc2)c1C` [drawing 711], the “Result in α7+/− β-galactosidase assay” value was 0.2274 (0.5 uM); 0.1661 (1 uM); −0.01196 (5 uM); 0.01787 (10 uM); −0.3971 (20 uM); −0.6044 (40 uM).
Regarding `COc1c(Cl)cc(/C=C2\C(=O)Nc3ccccc32)cc1Cl` [drawing 712], the “Result in α7+/− β-galactosidase assay” value is given as 0.2725 (0.5 uM); 0.2417 (1 uM); 0.01335 (5 uM); 0.04886 (10 uM); 0.1098 (20 uM); −0.01132 (40 uM).
Consider `COc1c(Cl)cc(/C=C2\C(=O)Nc3ccccc32)cc1Cl` [drawing 713], for which the “Result in α7+/− β-galactosidase assay” value by setting is: (0.5 uM) 0.3543; (1 uM) 0.1322; (5 uM) −0.0815; (10 uM) −0.2165; (20 uM) −0.302; (40 uM) −0.4698.
Take `CC(=O)Oc1c(Cl)cc(/C=C2\C(=O)Nc3ccccc32)cc1Cl` [drawing 714]: the “Result in α7+/− β-galactosidase assay” value by setting is: (0.5 uM) 0.1697; (1 uM) −0.08406; (5 uM) 0.02082; (10 uM) 0.02563; (20 uM) −0.00439; (40 uM) −0.1892.
For `CCN(CC)CCNC(=O)c1c(C)[nH]c(CC2C(=O)Nc3ccc(F)cc32)c1C` (stereo not drawn) [drawing 715], the “Result in α7+/− β-galactosidase assay” value runs as follows: (0.5 uM) −0.1627; (1 uM) 0.03203; (5 uM) −0.6776; (10 uM) −0.9863; (20 uM) −0.9859; (40 uM) −0.9872.
With `O=C1Nc2ccccc2/C1=C1\Nc2ccccc2C1=O` [drawing 716], the “Result in α7+/− β-galactosidase assay” value is 0.06101 (0.5 uM); 0.0859 (1 uM); −0.394 (5 uM); −0.2837 (10 uM); −0.157 (20 uM); −0.1933 (40 uM).
Turning to `Cc1[nH]c(/C=C2\C(=O)Nc3ccccc32)c(C)c1CCC(=O)O` [drawing 717], the “Result in α7+/− β-galactosidase assay” value is, setting by setting: (0.5 uM) 0.01086; (1 uM) 0.05675; (5 uM) −0.0938; (10 uM) −0.1338; (20 uM) −0.04064; (40 uM) −0.0832.
With `Cc1cc(C)c(/C=C2\C(=O)Nc3ccccc32)[nH]1` [drawing 718], the “Result in α7+/− β-galactosidase assay” value is, setting by setting: (0.5 uM) 0.03555; (1 uM) 0.05336; (5 uM) −0.2683; (10 uM) −0.3603; (20 uM) −0.2204; (40 uM) −0.3534.
For the compound `Cc1cc(C)c(/C=C2\C(=O)Nc3ccccc32)[nH]1` [drawing 720], the “Result in α7+/− β-galactosidase assay” value (0.5 uM) is on record as −0.06315; the “Result in α7+/− β-galactosidase assay” value (1 uM) is listed as −0.0048; the “Result in α7+/− β-galactosidase assay” value (5 uM) is listed as −0.2673; the “Result in α7+/− β-galactosidase assay” value (10 uM) is on record as −0.3421; the “Result in α7+/− β-galactosidase assay” value (20 uM) is given as −0.3332; the “Result in α7+/− β-galactosidase assay” value (40 uM) is listed as −0.4797.
Regarding `Cc1cc(C)c(/C=C2\C(=O)Nc3ccccc32)[nH]1` [drawing 721], the “Result in α7+/− β-galactosidase assay” value reads like this: (0.5 uM) −0.05673; (1 uM) −0.01961; (5 uM) −0.2468; (10 uM) −0.2855; (20 uM) −0.1121; (40 uM) −0.2422.

Source of the values: patent US10028992B2, “Methods of treating muscular dystrophy” (BOARD OF REGENTS OF THE NEVADA SYSTEM OF HIGHER EDUCATION …, priority 2012, dated 2018).
